Data: US5182289A, “Heterobicyclic compounds having antiinflammatory activity” (Schering Corporation, priority 1990, dated 1993)

Tests used:
[1] = biological target: T1, 5-lipoxygenase (Homo sapiens, UniProt P09917); assay: 5-Lipoxygenase Assay in human polymorphonuclear (PMN) leukocytes, 5-HETE production; format: cell-based
T1 construct: Human polymorphonuclear (PMN) leukocytes (neutrophils) are obtained from normal healthy volunteers; endogenous in cells; host or cells: human polymorphonuclear leukocytes (neutrophils) from blood of healthy volunteers
T1 sequence (P09917 1-674): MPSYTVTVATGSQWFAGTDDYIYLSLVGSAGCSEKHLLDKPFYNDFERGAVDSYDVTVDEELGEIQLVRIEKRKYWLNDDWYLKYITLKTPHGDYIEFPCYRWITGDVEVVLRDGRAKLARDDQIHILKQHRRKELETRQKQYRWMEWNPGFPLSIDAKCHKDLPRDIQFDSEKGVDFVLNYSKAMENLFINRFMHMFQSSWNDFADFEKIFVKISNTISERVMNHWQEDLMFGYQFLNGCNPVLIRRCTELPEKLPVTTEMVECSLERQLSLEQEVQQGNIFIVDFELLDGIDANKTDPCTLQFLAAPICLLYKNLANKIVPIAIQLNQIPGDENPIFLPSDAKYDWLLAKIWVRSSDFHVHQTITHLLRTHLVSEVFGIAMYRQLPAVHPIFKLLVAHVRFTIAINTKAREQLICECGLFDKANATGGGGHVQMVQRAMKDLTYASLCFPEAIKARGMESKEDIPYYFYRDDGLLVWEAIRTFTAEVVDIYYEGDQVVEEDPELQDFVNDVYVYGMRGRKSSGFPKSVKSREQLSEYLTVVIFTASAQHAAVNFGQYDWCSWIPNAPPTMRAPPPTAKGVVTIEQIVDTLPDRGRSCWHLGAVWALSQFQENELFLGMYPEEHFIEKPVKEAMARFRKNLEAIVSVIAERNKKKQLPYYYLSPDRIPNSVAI
Method: Human polymorphonuclear (PMN) leukocytes (neutrophils) are obtained from normal healthy volunteers by venipuncture and collected with heparin anticoagulant. Neutrophils are isolated by Dextran/Ficol sedimentation as described (Billah et al, J. Biol. Chem. 260, 6899-6906 (1985)). In brief, 30 ml of blood is mixed with 5 ml of dextran (Sigma) solution and kept at 37° C. for 30 min. The upper white cellrich layer is removed and 10 ml is layered on 9 ml of Ficol-Paque solution (Pharmacia) and centrifuged at 280×g for 10 min. at 5° C. The supernatant is removed and the neutrophil pellet is resuspended in HEPES buffer containing 25 mM N-2-hydroxyethylpiperazine-N^1 -2 ethanesulfonic acid(HEPES), 125 mM NaCl, 2.5 mM KCL, 0.7 mM MgCl2, 0.5 mM and 10 mM glucose at pH 7.4. The red cells in the suspension are lysed by hypotonic shock. The neutrophils are washed by centrifugation in HEPES buffer two times and finally resuspended at a concentration of 20×10^6 cells/ml in the presence of 1 mM CaCl2.
Neutrophils (0.2 ml of suspension) are preincubated with dimethylsulfoxide (DMSO) vehicle with or without test compound (1 ul) for 4 minutes then incubated for 5 minutes with ^14 C-arachidonic acid (Amersham, 59 Ci/mole) at a 9 uM final concentration, and the calcium ionophore A23187 (Calbiochem) at a 1 uM final concentration. These stimulants are added in 10 ul of water:ethanol (9:1). The reaction is stopped by addition of methanol (0.4 ml), and cellular debris is removed by centrifugation. Aliquots (100 ul) of the incubations are run on a Waters two pump high performance liquid chromatography (HPLC) system fitted with a DuPont Zorbax ODS, 5 u, 4×80 […] Reliance Cartridge column and C18 "Guard Pak". The column is initially eluted at 2 ml/min with 80 percent of the mixture water:methanol:acetic acid (46:54:0.08) containing 1 mM EDTA adjusted to pH 6.0 with ammonium hydroxide (Pump A) and 20% methanol (Pump B). At 10 minutes, a linear gradient is established. to reach 100 percent methanol (Pump B) at 27 minutes. Between 27 and 28 minutes, methanol is exchanged for the initial eluting solvent and by 35 minutes the column is reequilibrated for the next sample. The effluent is analyzed by a continuous flow radioactivity monitor (model ROMONA-D) interfaced with a Hewlett Packard Lab Automation System for quantitation of radioactive products. This includes the major 5-lipoxygenase product, 5-hydroxyeicosatetraenoic acid (5-HETE) which elutes at 20 minutes. The results with and without test compound are used to calculate percent inhibition of 5-HETE production.

[2] = biological target: T2, cyclooxygenase (Homo sapiens, UniProt P23219); assay: Cyclooxygenase Assay with Human Platelets, HHT production; format: cell-based; details: for % inhibition of HHT production in human platelets / % inhibition of HHT production in human platelets at 15 µM: 15 μM; for % inhibition of HHT production in human platelets at 15 µM / % inhibition of HHT production in human platelets at 50 µM: read-out: PMN Assay % Inhibition HHT
T2 construct: Cyclooxygenase Assay with Human Platelets; endogenous in cells; host or cells: human blood platelets from healthy volunteers
T2 sequence (P23219 24-599): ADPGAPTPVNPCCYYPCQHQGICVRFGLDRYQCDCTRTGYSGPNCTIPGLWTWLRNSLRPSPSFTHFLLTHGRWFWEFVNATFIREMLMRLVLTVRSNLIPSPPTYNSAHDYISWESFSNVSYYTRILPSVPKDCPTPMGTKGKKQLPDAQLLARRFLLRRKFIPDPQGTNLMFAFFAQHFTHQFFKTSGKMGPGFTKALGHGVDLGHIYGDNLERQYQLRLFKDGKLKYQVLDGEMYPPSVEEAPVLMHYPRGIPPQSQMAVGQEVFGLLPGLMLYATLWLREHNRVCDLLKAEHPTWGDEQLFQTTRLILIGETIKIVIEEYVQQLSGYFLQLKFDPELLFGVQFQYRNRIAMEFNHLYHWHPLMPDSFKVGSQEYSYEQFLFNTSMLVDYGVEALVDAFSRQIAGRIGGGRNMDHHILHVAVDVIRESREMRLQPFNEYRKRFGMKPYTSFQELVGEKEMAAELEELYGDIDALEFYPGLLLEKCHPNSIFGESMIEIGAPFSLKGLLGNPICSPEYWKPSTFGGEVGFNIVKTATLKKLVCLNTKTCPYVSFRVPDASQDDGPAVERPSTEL
Method: Cyclooxygenase Assay with Human Platelets
Blood is collected in acid-citrate-dextrose anticoagulant by venipuncture from normal healthy volunteers who said that they were not on any medication for the previous two weeks. Platelets are isolated by the procedure of Okuma and Uchino (Blood 54:1258-1271 (1979)). In brief, blood is centrifuged at 4° C. at 200×g for 10 minutes to sediment red and white cells. The platelet rich plasma (PRP) supernatant is removed and mixed with one-tenth volume of 77 mM EDTA, pH 7.2 and prostacyclin sodium salt is added to the PRP at a final concentration of 1 nanogram per milliliter(ng/mL). The PRP is centrifuged at 1700×g, 4° C. for 15 minutes. The platelet pellet is resuspended in the HEPES buffer described in the 5-lipoxygenase section above which additionally contained 1 ng/mL prostacyclin and 0.5 mM ethylene glycolbis(B-aminoethyl ether) N,N,N',N'-tetraacetic acid (EGTA) and the suspension is recentrifuged at 1,700×g, 4° C. for 15 minutes. The pellet is resuspended in HEPES buffer containing 0.5 mM EGTA and 1.5 mM CaCl2 at a cell count of 200,000 cells/ul. Platelets (0.2 ml of suspension) are preincubated with test compounds and the ^14 C-arachidonic acid plus the calcium ionophore A23187 stimulant exactly as described for the 5-lipoxygenase assay. The cyclooxygenase product 12-hydroxyheptadecatrienoic acid (HHT) is isolated and quantitated by the HPLC system used for the 5-lipoxygenaseassay. HHT elutes from this system at about eleven minutes. Results are expressed as percent inhibition of HHT production by the test compounds versus the test vehicle alone.

| Molecule | inhibition at 15 µM ([1]; 15 μM) [%] | inhibition at 50 µM ([1]; 50 μM) [%] | % inhibition of HHT production in human platelets at 50 µM [2] [%] | other results |
| --- | --- | --- | --- | --- |
| 1,3-dihydro-3-(2-methoxyphenylthio)-1-phenyl-2H-pyrrolo[2,3-b]pyridin-2-one [Compound 23] | – | – | – | PMN Assay % Inhibition 5-HETE ([1]; 15 μM): 47%; PMN Assay % Inhibition 5-HETE ([1]; 50 μM): 81%; % inhibition of HHT production in human platelets [2]: 49% |
| O=C1C(Sc2ccccc2)c2cccnc2N1c1ccccc1 (centres unmarked) [Compound 11, 1,3-dihydro-1-phenyl-3-(phenylthio)-2H-pyrrolo[2,3-b]pyridin-2-one] | 67 | – | – | % inhibition of HHT production in human platelets at 15 µM [2]: 23% |
| O=C1C(Sc2ccccc2)c2cccnc2N1c1cccc(C(F)(F)F)c1 (centres unmarked) [Compound 12, 1,3-dihydro-3-(phenylthio)-1-(3-trifluoromethylphenyl)-2H-pyrrolo[2,3-b]pyridin-2-one] | 79 | – | – | – |
| O=C1C([S+]([O-])c2ccccc2)c2cccnc2N1c1cccc(C(F)(F)F)c1 (centres unmarked) [Compound 13, 1,3-dihydro-3-(phenylsulfinyl)-1-(3-trifluoromethylphenyl)-2H-pyrrolo[2,3-b]pyridin-2-one] | – | 82 | 44 | – |
| CC(C)N1C(=O)C(Sc2ccccc2)c2cccnc21 (centres unmarked) [Compound 14, 1,3-dihydro-1-(methylethyl)-3-(phenylthio)-2H-pyrrolo[2,3-b]pyridin-2-one] | – | 63 | 17 | – |
| CC(C)c1ccc(N2C(=O)C(Sc3ccccc3)c3cccnc32)cc1 (centres unmarked) [Compound 15, 1,3-dihydro-1-(4-(1-methylethyl)-phenyl)-3-(phenylthio)-2H-pyrrolo[2,3-b]pyridin-2-one] | – | 84 | – | – |
| CC1(Sc2ccccc2)C(=O)N(c2ccccc2)c2ncccc21 (centres unmarked) [Compound 16, 1,3-dihydro-3-methyl-1-phenyl-3-(phenylthio)-2H-pyrrolo[2,3-b]pyridin-2-one] | – | 68 | 2 | – |
| CN1C(=O)C(Sc2ccccc2)c2cccnc21 (centres unmarked) [Compound 17, 1,3-dihydro-1-methyl-3-(phenylthio)-2H-pyrrolo[2,3-b]pyridin-2-one] | – | 63 | 21 | – |
| Cc1c(Cl)cccc1N1C(=O)C(Sc2ccccc2)c2cccnc21 (centres unmarked) [Compound 18, 1,3-dihydro-1-(3-chloro-2-methylphenyl)-3-(phenylthio)-2H-pyrrolo[2,3-b]pyridin-2-one] | – | 86 | 64 | – |
| O=C1C(Sc2ccc(Cl)cc2)c2cccnc2N1c1ccccc1 (centres unmarked) [Compound 19, 1,3-dihydro-3-(4-chlorophenylthio)-1-phenyl-2H-pyrrolo[2,3-b]pyridin-2-one] | – | 91 | 71 | – |
| O=C1C(Sc2ccccc2Cl)c2cccnc2N1c1ccccc1 (centres unmarked) [Compound 20, 1,3-dihydro-3-(2-chlorophenylthio)-1-phenyl-2H-pyrrolo[2,3-b]pyridin-2-one] | – | 90 | 80 | – |
| COc1ccc(SC2C(=O)N(c3ccccc3)c3ncccc32)cc1 (centres unmarked) [Compound 21, 1,3-dihydro-3-(4-methoxyphenylthio)-1-phenyl-2H-pyrrolo[2,3-b]pyridin-2-one] | 61 | – | – | – |
| COc1ccccc1SC1C(=O)N(c2ccccc2)c2ncccc21 (centres unmarked) [Compound 22, 1,3-dihydro-3-(2-methoxyphenylthio)-1-phenyl-2H-pyrrolo[2,3-b]pyridin-2-one] | – | 84 | 31 | – |
| CN1C(=O)C([S+]([O-])c2ccccc2)c2cccnc21 (centres unmarked) [Compound 24, 1,3-dihydro-1-methyl-3-(phenylsulfinyl)-2H-pyrrolo[2,3-b]pyridin-2-one] | 24 | – | – | – |
| O=C1C(SCCO)c2cccnc2N1c1ccccc1 (centres unmarked) [Compound 25, 1,3-dihydro-3-(2-hydroxyethylthio)-1-phenyl-2H-pyrrolo[2,3-b]pyridin-2-one] | 8 | – | – | – |
| O=C1N(Cc2ccccc2)c2ncccc2C1(Sc1ccccc1)Sc1ccccc1 [Compound 26, 1,3-dihydro-3,3-(diphenylthio)-1-(phenylmethyl)-2H-pyrrolo[2,3-b]pyridin-2-one] | 96 | – | – | % inhibition of HHT production in human platelets at 15 µM [2]: 11% |
| O=C1C(Sc2ccccc2)c2cccnc2N1Cc1ccccc1 (centres unmarked) [Compound 27, 1,3-dihydro-1-(phenylmethyl)-3-(phenylthio)-2H-pyrrolo[2,3-b]pyridin-2-one] | 16 | – | – | – |
| CC(=O)OCCSC1(C(C)=O)C(=O)N(c2ccccc2)c2ncccc21 (centres unmarked) [Compound 28, 1,3-dihydro-3-[2-(acetoxy)-ethylthio)-3-(1-oxoethyl)-1-phenyl-2H-pyrrolo[2,3-b]pyridin-2-one] | 80 | – | – | PMN Assay % Inhibition 5-HETE ([1]; 15 μM): 96%; % inhibition of HHT production in human platelets [2]: 29%; % inhibition of HHT production in human platelets at 15 µM [2]: 35% |
| CC(=O)C1(SCCO)C(=O)N(c2ccccc2)c2ncccc21 (centres unmarked) [Compound 29] | 56 | – | – | – |
| CC(=O)OCCSC1C(=O)N(c2ccccc2)c2ncccc21 (centres unmarked) [Compound 30, 1,3-dihydro-3-[2-(acetoxy)-ethylthio]-1-phenyl-2H-pyrrolo[2,3-b]pyridin-2-one] | 26 | – | – | – |
| CN1C(=O)C(S(=O)(=O)c2ccccc2)c2cccnc21 (centres unmarked) [Compound 31, 1,3-dihydro-1-methyl-3-(phenylsulfonyl)-2H-pyrrolo[2,3-b]pyridin-2-one] | 10 | – | – | – |
| CSC1(C)C(=O)N(c2ccccc2)c2ncccc21 (centres unmarked) [Compound 32, 1,3-dihydro-3-methyl-3-(methylthio)-1-phenyl--2H-pyrrolo[2,3-b]pyridin-2-one] | 21 | – | – | – |
| O=C1C(Sc2ccccc2)c2cccnc2N1c1cccc(Cl)c1 (centres unmarked) [Compound 33, 1,3-dihydro-1-(3-chlorophenyl)-3-(phenylthio)-2H-pyrrolo] | 87 | – | – | % inhibition of HHT production in human platelets at 15 µM [2]: 52% |
| O=C1C(Sc2ccccc2)c2cccnc2N1c1ccc(Cl)c(Cl)c1 (centres unmarked) [Compound 34, 1,3-dihydro-1-(3,4-dichlorophenyl)-3-(phenylthio)[2,3-b]pyridin-2-one] | 99 | – | – | % inhibition of HHT production in human platelets at 15 µM [2]: 54% |
